# Measurements published in US9850247B2 (Almac Discovery Limited, priority 2013, dated 2017).
# Biological target: T1, Wee-1 kinase (Homo sapiens, UniProt P30291)
# T1 construct: purchased Invitrogen PV3817
# Assay: Measurement of Wee-1 kinase activity (ADP-Glo luminescent kit)
# Type: biochemical
# Description: Method 1: Measurement of Wee-1 Kinase Activity
# In the measurement of Wee-1 activity, a commercial peptide Poly(Lys Tyr (4:1)) hydrobromide was purchased from Sigma Aldrich and used as the substrate. Activated Wee-1 kinase was purchased from Invitrogen (PV3817) and an ADP-Glo luminescent kit was purchased from Promega.
# All reactions took place in […] volumes in reaction buffer containing 40 mM Tris-HCl and 20 mM magnesium chloride, supplemented with 0.1 mg/mL bovine serum albumin and 2 mM DTT. Compounds were serially diluted in buffer and 5 μL of each concentration pipetted into a white 384 well plate (Sigma Aldrich M6186). A 5 μL aliquot of the Wee-1 enzyme was added to each well and the plate centrifuged for 1 min to ensure mixing of the enzyme and inhibitor.
# The plate was incubated at room temperature for 30 minutes before the addition of 2.0 μg/mL of substrate and 30 μM ATP in a 5 μL aliquot. The plate was centrifuged for one minute and incubated for 1 h at RT.
# 15 µL of ADP-Glo stop reagent was added to each well to quench the reaction and deplete unconverted ATP. The plate was incubated for a further 40 min in the dark at RT.
# 30 μL of ADP-Glo kinase detection reagent was added to each well, converting ADP to ATP, catalysing the generation of luciferin by luciferase. The plate was shaken for 1 min, and incubated in the dark for an additional hour.
# Luminescence from each well was detected using the Biotek Synergy4 HD plate reader and the percentage inhibition of kinase activity calculated for each inhibitor tested. Positive (kinase only) and negative (no kinase) controls were added to each plate to ensure specific interaction of kinase and inhibitor. The IC50 concentration for each inhibitor was calculated by plotting the percentage kinase inhibition against concentration of inhibitor and the curve generated by non-linear regression fitting.
# T1 sequence (P30291 whole entry): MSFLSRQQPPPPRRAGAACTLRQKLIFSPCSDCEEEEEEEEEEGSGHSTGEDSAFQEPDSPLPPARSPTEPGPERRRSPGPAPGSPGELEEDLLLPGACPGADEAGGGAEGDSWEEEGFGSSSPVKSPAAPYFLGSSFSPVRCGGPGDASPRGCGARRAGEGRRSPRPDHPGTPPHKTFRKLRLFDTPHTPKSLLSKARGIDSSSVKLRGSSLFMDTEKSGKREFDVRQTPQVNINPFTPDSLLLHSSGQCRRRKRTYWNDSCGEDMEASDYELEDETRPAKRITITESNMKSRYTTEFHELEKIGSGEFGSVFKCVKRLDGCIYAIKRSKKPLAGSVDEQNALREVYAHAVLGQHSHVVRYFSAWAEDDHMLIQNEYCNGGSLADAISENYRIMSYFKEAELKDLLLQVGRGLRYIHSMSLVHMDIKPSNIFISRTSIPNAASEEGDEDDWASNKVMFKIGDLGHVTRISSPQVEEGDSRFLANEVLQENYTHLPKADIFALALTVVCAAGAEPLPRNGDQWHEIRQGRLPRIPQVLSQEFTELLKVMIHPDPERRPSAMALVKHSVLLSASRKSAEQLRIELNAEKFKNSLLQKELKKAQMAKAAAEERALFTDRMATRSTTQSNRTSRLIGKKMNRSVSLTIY
row,Compound,IC50 [nM]
1,"COc1cc(Nc2ncc3c(n2)N(C)CN(c2ccccc2Cl)C3=O)ccc1N1C[C@@H]2C[C@H]1CN2 [Example 107, 7-((4-((1S,4S)-2,5-diazabicyclo[2.2.1]heptan-2-yl)-3-methoxyphenyl)amino)-3-(2-chlorophenyl)-1-methyl-2,3-dihydropyrimido[4,5-d]pyrimidin-4(1H)-one]",10 to 100
2,"CN1CN(c2ccccc2Cl)C(=O)c2cnc(Nc3ccc(N4CCNC5(CC5)C4)cc3)nc21 [Example 105, 7-((4-(4,7-diazaspiro[2.5]octan-7-yl)phenyl)amino)-3-(2-chlorophenyl)-1-methyl-2,3-dihydropyrimido[4,5-d]pyrimidin-4(1H)-one]",10 to 100
3,"C[C@@H]1CN(c2ccc(Nc3ncc4c(n3)N(C3CC3)CN(c3c(Cl)cccc3Cl)C4=O)cc2)CCN1 [Example 85, (R)-1-cyclopropyl-3-(2,6-dichlorophenyl)-7-((4-(3-methylpiperazin-1-yl)phenyl)amino)-2,3-dihydropyrimido[4,5-d]pyrimidin-4(1H)-one]",10 to 100
4,"Cc1cccc(Cl)c1N1CN(C)c2nc(Nc3ccc(N4CCN[C@H](C)C4)cc3)ncc2C1=O [Example 100, (R)-3-(2-chloro-6-methylphenyl)-1-methyl-7-((4-(3-methylpiperazin-1-yl)phenyl)amino)-2,3-dihydropyrimido[4,5-d]pyrimidin-4(1H)-one]",10 to 100
5,"CN1CN(c2c(F)cccc2Cl)C(=O)c2cnc(Nc3ccc(N4C[C@@H]5C[C@H]4CN5)cc3)nc21 [Example 54, 7-((4-((1S,4S)-2,5-diazabicyclo[2.2.1]heptan-2-yl)phenyl)amino)-3-(2-chloro-6-fluorophenyl)-1-methyl-2,3-dihydropyrimido[4,5-d]pyrimidin-4(1H)-one]",10 to 100
6,"C[C@@H]1CN(c2ccc(Nc3ncc4c(n3)N(C)CN(c3ccccc3Cl)C4=O)cc2)CCN1 [Example 94, (R)-3-(2-chlorophenyl)-1-methyl-7-((4-(3-methylpiperazin-1-yl)phenyl)amino)-2,3-dihydropyrimido[4,5-d]pyrimidin-4(1H)-one]",10 to 100
7,"CN1CN(c2c(Cl)cccc2Cl)C(=O)c2cnc(Nc3ccc(N4CCNC(C(F)(F)F)C4)cc3)nc21 (stereo not drawn) [Example 62, 3-(2,6-dichlorophenyl)-1-methyl-7-((4-(3-(trifluoromethyl)piperazin-1-yl)phenyl)amino)-2,3-dihydropyrimido[4,5-d]pyrimidin-4(1H)-one]",10 to 100
8,"CN1CN(c2ccccc2Cl)C(=O)c2cnc(Nc3ccc(N4CCNCC4)cc3)nc21 [Example 24, 3-(2-Chlorophenyl)-1-methyl-7-((4-(piperazin-1-yl)phenyl)amino)-2,3-dihydropyrimido[4,5-d]pyrimidin-4(1H)-one]",10 to 100
9,"CN1CN(c2c(F)cccc2Cl)C(=O)c2cnc(Nc3cccc(CO)c3)nc21 [Example 56, 3-(2-chloro-6-fluorophenyl)-7-((3-(hydroxymethyl)phenyl)amino)-1-methyl-2,3-dihydropyrimido[4,5-d]pyrimidin-4(1H)-one]",≥ 100
10,"COc1ccc(CN2CN(c3c(Cl)cccc3Cl)C(=O)c3cnc(Nc4ccc(N5CCNCC5)cc4)nc32)cc1 [Example 8, 3-(2,6-Dichlorophenyl)-1-(4-methoxybenzyl)-7-((4-(piperazin-1-yl)phenyl)amino)-2,3-dihydropyrimido[4,5-d]pyrimidin-4(1H)-one]",≥ 100
11,"C[C@@H]1CN[C@@H](C)CN1c1ccc(Nc2ncc3c(n2)N(C)CN(c2ccccc2Cl)C3=O)cc1 [Example 98, 3-(2-chlorophenyl)-7-((4-((2R,5S)-2,5-dimethylpiperazin-1-yl)phenyl)amino)-1-methyl-2,3-dihydropyrimido[4,5-d]pyrimidin-4(1H)-one]",10 to 100

# More lines, now with the values ahead:
row,IC50 [nM],Compound
1,10 to 100,"CC(=O)N1CCN(c2ccc(Nc3ncc4c(n3)N(C)CN(c3c(Cl)cccc3Cl)C4=O)cc2)CC1 [Example 125, 7-((4-(4-acetylpiperazin-1-yl)phenyl)amino)-3-(2,6-dichlorophenyl)-1-methyl-2,3-dihydropyrimido[4,5-d]pyrimidin-4(1H)-one]"
2,10 to 100,"C[C@@H]1CN(C)[C@@H](C)CN1c1ccc(Nc2ncc3c(n2)N(C)CN(c2c(Cl)cccc2Cl)C3=O)cc1 [Example 45, 3-(2,6-dichlorophenyl)-1-methyl-7-((4-((2R,5S)-2,4,5-trimethylpiperazin-1-yl)phenyl)amino)-2,3-dihydropyrimido[4,5-d]pyrimidin-4(1H)-one]"
3,10 to 100,"C[C@@H]1CN(c2ccc(Nc3ncc4c(n3)N(C)CN(c3c(Cl)cccc3Cl)C4=O)cc2F)CCN1C [Example 47, (R)-3-(2,6-dichlorophenyl)-7-((4-(3,4-dimethylpiperazin-1-yl)-3-fluorophenyl)amino)-1-methyl-2,3-dihydropyrimido[4,5-d]pyrimidin-4(1H)-one]"
4,≥ 100,"CN1CN(c2c(Cl)cccc2Cl)C(=O)c2cnc(Nc3ccc(N4CCN(C)C(C(F)(F)F)C4)cc3)nc21 (stereo not drawn) [Example 68, 3-(2,6-dichlorophenyl)-1-methyl-7-((4-(4-methyl-3-(trifluoromethyl)piperazin-1-yl)phenyl)amino)-2,3-dihydropyrimido[4,5-d]pyrimidin-4(1H)-one]"
5,10 to 100,"C[C@@H]1CN[C@@H](C)CN1c1ccc(Nc2ncc3c(n2)N(C)CN(c2c(Cl)cccc2Cl)C3=O)cc1F [Example 81, 3-(2,6-dichlorophenyl)-7-((4-((2R,5S)-2,5-dimethylpiperazin-1-yl)-3-fluorophenyl)amino)-1-methyl-2,3-dihydropyrimido[4,5-d]pyrimidin-4(1H)-one]"
6,≤ 10,"COc1cc(Nc2ncc3c(n2)N(C)CN(c2c(Cl)cccc2Cl)C3=O)ccc1C1CCN(C)CC1 [Example 183, 3-(2,6-dichlorophenyl)-7-((3-methoxy-4-(1-methylpiperidin-4-yl)phenyl)amino)-1-methyl-2,3-dihydropyrimido[4,5-d]pyrimidin-4(1H)-one]"
7,10 to 100,"CN1CN(c2c(Cl)cccc2Cl)C(=O)c2cnc(Nc3ccc(N4CCN(C)[C@H](CO)C4)c(F)c3)nc21 [Example 50, (S)-3-(2,6-dichlorophenyl)-7-((3-fluoro-4-(3-(hydroxymethyl)-4-methylpiperazin-1-yl)phenyl)amino)-1-methyl-2,3-dihydropyrimido[4,5-d]pyrimidin-4(1H)-one]"
8,10 to 100,"COC[C@H]1CN(c2ccc(Nc3ncc4c(n3)N(C)CN(c3c(Cl)cccc3Cl)C4=O)cc2)CCN1C [Example 65, (R)-3-(2,6-dichlorophenyl)-7-((4-(3-(methoxymethyl)-4-methylpiperazin-1-yl)phenyl)amino)-1-methyl-2,3-dihydropyrimido[4,5-d]pyrimidin-4(1H)-one]"
9,≤ 10,"COc1cc(Nc2ncc3c(n2)N(C)CN(c2c(Cl)cccc2Cl)C3=O)ccc1C1CCNCC1 [Example 182, 3-(2,6-dichlorophenyl)-7-((3-methoxy-4-(piperidin-4-yl)phenyl)amino)-1-methyl-2,3-dihydropyrimido[4,5-d]pyrimidin-4(1H)-one]"
10,10 to 100,"C[C@@H]1CN[C@@H](C)CN1c1ccc(Nc2ncc3c(n2)N(C)CN(c2ccccc2Cl)C3=O)cc1F [Example 110, 3-(2-chlorophenyl)-7-((4-((2R,5S)-2,5-dimethylpiperazin-1-yl)-3-fluorophenyl)amino)-1-methyl-2,3-dihydropyrimido[4,5-d]pyrimidin-4(1H)-one]"
